Results on one substance are retold here after US5571799A, “(2'-5') oligoadenylate analogues useful as inhibitors of host-v5.-graft response” (Basco, Ltd., priority 1994, dated 1996).

One assay relates to transplanted kidney. The experiment in a line: Kidney cross-allotransplantation in monkeys: graft function. In kind it is in vivo, Macaque Rh. monkeys. The procedure:
The experiments were performed on 4 year-old Macaque Rh. monkeys. Each cohort consisted of 3 animals. […] The results of the experiments were evaluated clinically: by the presence or absence of urination from the ureterocutaneostoma.
After intravenous anesthesia with Ketalar®, an extraperitoneal access to the left kidney was performed through layer by layer cuts to the left lumbar region. The kidney was excised from the surrounding tissues. A clamp was applied to the vessel limb; the artery, the vein and the ureter each were prepared for anastomosis separately. The kidney was excised and transferred for hypothermal conservation in Collins' solution.
The donor kidney was transplanted into the recipient. […] anastomosis was performed: the graft arteries and veins attached to the appropriate recipient kidney vessels through plastic tubes. The kidney having been resuscitated by in blood flow, acquired the normal color and turgor. Additional hemostasis in the wound was performed. Ureterocutaneostomy was performed, which was followed by applying layer-upon-layer sutures on the wound and its aseptic dressing.
The monkeys were narcotized by means of the intravenous anesthesia with Ketalar® and subjected to medial laparotomy from the xiphoid down to the pubic joint. Access to the left Kidney was made extraperitoneally. The kidney was teased from the surrounding tissues. A clamp was put on the vessel limb; the artery, the vein and the ureter were dressed separately; the kidney was cut and transferred for hypothermal conservation in Collins' solution.
The internal iliac artery and the external iliac vein were extracted extra-peritoneally, immobilized and prepared for anastomosis. The donor kidney was transferred to the recipient. Vessel anastomosis was performed: the graft arteries were anastomosed with the internal iliac artery according to the end-to-end method and the graft veins were anastomosed with the external iliac vein according to the end-to-side method. The kidney having been engaged in blood flow, acquired a normal color and turgor. […]

Assay [1] relates to natural compound 2'-5'A3 in blood plasma and blood cells. Description: Duration of activity in the blood of rabbits (radioimmune and fluoroimmune detection). Type of assay: in vivo. The note with it: 10 min after one injection, 10 μg/kg, rabbit. An excerpt: Duration of (2'-5')A2 Ar-epoxy Activity in the Blood of Rabbits
In order to study (2'-5')A2 Ar-epoxy pharmacodynamics, the radioimmune and fluoroimmune techniques were developed for its detection in tissue.

The test system of assay [2] is T-lymphocytes (murine splenocytes) stimulated with Concanavalin A. Description: In vitro blast-transformation of murine lymphocytes, Con A (T-lymphocyte mitogen), [3H]-thymidine. In kind it is cell-based, mouse (CBA). The note with it: for DNA synthesis at [^3 H]-thymidine [incorporated counts/min.]: Con A 5 μg/ml. The text has this: The immune reactions in an organism begins with the division of lymphocytes. In vitro investigation of the lymphocyte blast-transformationreaction under the influence of mitogens makes it possible to use this model system to select chemically synthesized 2'-5'A3 analogues which suppress division of lymphocytes. Using Concanavalin A and lipopolysaccharide as mitogens, the effect of analogues on the division of T- and β-lymphocytes may be investigated.
CBA mice 8-10 weeks old were used for these experiments. A suspension of mouse splenocytes were obtained by gently teasing spleens with forceps. […] Cultures were maintained in 5% CO2 at 37° C. One μCi of ^3 H-thymidine (Isotop®) was added to each well 4 hours before the end of the incubation period. Incorporation of ^3 H-thymidine into cellular DNA was determined by liquid scintillation counting using standard techniques. Oligoadenylate was added to the medium at the beginning of culturing to achieve the final concentration.
(Con A being a mitogen for T-lymphocytes and LPS being a mitogen for β-lymphocytes).

“Also recorded” adds a separate entry of the source. Where only a bound is given, the exact number is not on record here.

On to “Adenylyl (2'-5')adenylyl (2'-5')-9-(2,3-anhydro-β-D-ribofuranosyl) adenine disodium salt [(2'-5')A2 Ar-epoxy]”, for which the “prevention of transplant rejection / kidney function, in words” value in the assay on transplanted kidney (50 μg/kg IV, disodium salt) is “protects the transplant from rejection, and renews normal functioning of the transplanted kidney; also recorded: transplanted kidney resumes and maintains its normal functions; also recorded: effectively prevent the rejection”. In addition, the “time to restoration of kidney function after transplantation” value in the assay with transplanted kidney (first group: 50 μg/kg IV 2 days pre-op., days 2, 6, 12, then every sixth day) was no more than 10 h; in the assay with transplanted kidney (second group: 50 μg/kg 2 days pre-op. and every other day), no more than 10 h. For the same substance, in assay [1], the “decrease of the level of natural compounds in blood plasma” value is 10 fold. Moreover, in assay [1], the “increase of concentration of natural compounds in blood cells” value is given as 10 fold. Further, the “DNA synthesis at [^3 H]-thymidine [incorporated counts/min.]” value (from here on “DNA synthesis … [incorporated counts/min.]”) in assay [2] (5 × 10^-6 M, control 22,296) is 16,399 counts/min; in assay [2] (Table 4, 1 × 10^-5 M, control 5,428), 4,172 counts/min; in assay [2] (Table 4, 5 × 10^-6 M, control 5,428) it was 1,733 counts/min; in assay [2] (Table 4, 5 × 10^-7 M, control 5,428) it was 3,865 counts/min; in assay [2] (Table 4, 5 × 10^-8 M, control 5,428), 5,383 counts/min; in assay [2] (Table 4, 5 × 10^-9 M, control 5,428), 1,599 counts/min. The “DNA synthesis … [incorporated counts/min.]” value in assay [2] (Table 4, 5 × 10^-10 M, control 5,428) is 777 counts/min; in assay [2] (Table 4, 5 × 10^-11 M, control 5,428), 5,271 counts/min; in assay [2] (Table 5, 1 × 10^-5 M, control 5,108), 2,960 counts/min; in assay [2] (Table 5, 5 × 10^-6 M, control 5,108) it was 4,732 counts/min; in assay [2] (Table 5, 5 × 10^-7 M, control 5,108), 2,237 counts/min; in assay [2] (Table 5, 5 × 10^-8 M, control 5,108), 1,355 counts/min. In addition, the “DNA synthesis … [incorporated counts/min.]” value in assay [2] (Table 5, 5 × 10^-9 M, control 5,108) is recorded as 6,915 counts/min; in assay [2] (Table 5, 5 × 10^-10 M, control 5,108) it was 1,425 counts/min. Besides, in assay [2] (Con A, T-lymphocytes), the “inhibition of lymphocyte blast-transformation, in words” value is reported as “suppresses the T-lymphocyte division to a greater extent”.
